pIC50: −log10 of the molar value. “And” between values parts separate entries of the source, which are not always exact repeats. Identical values can stand only once. Like-named read-outs stand apart in the source and are kept apart here. One block for each compound: values may come before it.
Experiments:
[1] = system: MCF-7 HER2-18; test: γ-H2AX foci induction, MCF-7 HER2-18; assay type: cell-based, human
[2] = system: T47D; test: MTT proliferation assay, T47D; assay type: cell-based, human
Protocol: (§1) FIG. 2A depicts in vitro MTT proliferation assay (5 days) showing aminoflavone activity in ER(+) and ER(−) breast cancer cell lines.
(§2) Table 1 below summarizes the results of the MTT (methyl tetrazolium) tests that were performed to assay cell growth in a panel breast cell lines and their characteristics. Both, MCF-7Her2-18 and MCF-7TAM1 express estrogen receptor. […] The ER(−) cells MDA-MB-231 and MCF10A with nuclear AhR are several log-fold less sensitive to aminoflavone (Table 1, FIG. 4). These observations confirm that aminoflavone is valuable in patients who have lost clinical benefit from estrogen receptor antagonists.
(§3) The inhibitory concentrations 50% (IC50) and 100% (IC100) listed in Table 1 represent the mean of three independent experiments. The estrogen receptor and AhR assays were performed three times.

[3] = system: MCF-7DF203r; test: MTT proliferation assay (5 days), MCF-7DF203r; assay type: cell-based, human; conditions: MTT 5 days; MCF-7 subclone with acquired resistance to benzothiazoles (DF203)
From the text: (Loaiza-Pérez et al.; Leong et al.) Isogenic subclones of MCF-7 resistant to the BZ DF203F (MCF-7DF203r), tamoxifen (MCF-7TAM1, MCF-7Her2-18) and Herceptin® (MCF-7Her2-18) were included.
as §1

[4] = system: MCF10A; test: MTT proliferation assay, MCF10A; assay type: cell-based, human
Protocol: as §2, §3

[5] = system: MCF10A; test: γ-H2AX foci induction, MCF10A; assay type: cell-based, human
[6] = system: Hs578T; test: aminoflavone sensitivity of Hs578T (FIGS. 6A and 6B); assay type: cell-based, human
[7] = system: MDA-MB-231; test: MTT proliferation assay, MDA-MB-231; assay type: cell-based, human
Protocol: as §1, §2, §3

[8] = system: LTLC; test: growth inhibition in hormone refractory LTLC (FIGS. 5A and 5B); assay type: cell-based, human; conditions: LTLC hormone refractory cell line
[9] = system: MCF-7 xenografts; conditions: 120 mg/kg intraperitoneally, 5 days per week; cited from earlier work
[10] = system: MDA-MB-231; test: γ-H2AX foci induction, MDA-MB-231; assay type: cell-based, human
From the text: (§4) Previous studies have reported that the occurrence of foci of phosphorylated γ-H2AX is indicative of the cellular response to aminoflavone in MCF-7 cells (Meng et al.). γ-H2AX phosphorylation is an early indicator of DNA double strand breaks and thus, induction of DNA-damage response in cells.
(§5) Phosphorylation of the histone variant γ-H2AX is a rapid and sensitive response to DNA double strand breaks. Aminoflavone induces γ-H2AX foci in drug sensitive MCF-7 and MCF-7TAM1 cells at IC50 concentrations 24 hrs after exposure, but not in aminoflavone resistant MDA-MB-231 breast cancer cells. γ-H2AX was detected by using a FITC-labeled anti-mouse secondary antibody (green) and its nuclear expression is shown by co-localization with the nuclear stain DAPI (blue). AhR was detected with a TRITC-labeled (red) secondary antibody.

[11] = system: NCI 60 cell line; conditions: "resistant" cell lines; cited from earlier work
[12] = system: MCF-7 TAM1; test: γ-H2AX foci induction, MCF-7 TAM1; assay type: cell-based, human; conditions: IC50 concentrations, 24 hrs after exposure
From the text: as §4, §5

[13] = system: MCF-7; test: γ-H2AX foci induction, MCF-7; assay type: cell-based, human; conditions: IC50 concentrations, 24 hrs after exposure
From the text: as §4, §5

[14] = system: ER+MDA-MB-231 cells; test: aminoflavone sensitivity of MDA-MB-231 stably transfected with human estrogen receptor-α; assay type: cell-based
[15] = system: MCF-7 HER2-18; test: MTT proliferation assay, MCF-7 HER2-18; assay type: cell-based, human; conditions: mean of three independent experiments
Protocol: (§6) FIG. 2B depicts an MTT assay (10 days) comparing the sensitivity of parental MCF-7 to aminoflavone and the tamoxifen resistant subclone MCF-7TAM1 to 4-OH tamoxifen (TAM) and aminoflavone respectively. Cells were grown in medium with charcoal-stripped fetal calf serum supplemented with 10 nM E2, estrogen. MCF-7 cells that have become resistant to tamoxifen by either selection (MCF-7TAM1, FIG. 2B), or genetic manipulation (MCF-7Her2-18, Table 1), remain sensitive to aminoflavone. An understanding of how MCF-7 DF203r and MDA-MB-231 differ from MCF-7 in the dynamics and distribution of their AhR and AhR associated signaling complexes may allow the clarification of the basis for aminoflavone sensitivity and resistance.
(§7) MCF-7Her2-18 is a variant of MCF-7 over-expressing the Her2/neu oncoprotein. As a result, it is resistant to Herceptin® (Shou et al. 2004 “Mechanisms of tamoxifen resistance: increased estrogen receptor-HER2/neu cross-talk in ER/HER2-positive breast cancer.” J Nat Cancer Inst 96: 926-35) and tamoxifen. […] (1999 “A multidrug resistance transporter from human MCF-7 breast cancer cells.” Proc Natl Acad Sci USA. 95: 15665-70.) The IC50s (16-20 nM) and IC100s of aminoflavone (˜300 nM) were nearly identical in MCF-7Her2-18 and parental MCF-7 cells (See Table 1, below). In MCF-7TAM1 cells, which were serum starved and then treated for 10 days with E2 alone, 4-OH-tamoxifen plus E2, and aminoflavone plus E2, the concentration of 4-OH-tamoxifen causing growth inhibition was >10 μM.
as §2, with “antagonists. […]” for “antagonists.”

[16] = system: T47D; test: γ-H2AX foci induction, T47D; assay type: cell-based, human
[17] = system: MCF-7 TAM1; test: MTT proliferation assay, MCF-7 TAM1; assay type: cell-based, human
Protocol: as §6, §7
as §2, with “antagonists. […]” for “antagonists.”

[18] = system: MCF-7; test: MTT proliferation assay, MCF-7; assay type: cell-based, human
Protocol: as §1, §6, §2, §3

[19] = system: MCF-7 cells; test: aminoflavone combination with estrogen receptor antagonists in MCF-7 cells; assay type: cell-based, human; conditions: administered with aminoflavone (FIG. 9)
Protocol: To examine the role of estrogen receptor in aminoflavone sensitivity, the inventors combined aminoflavone with a fixed concentration (100 nM) of the “pure” antiestrogen Faslodex® in MCF-7 cells.

[20] = MCF-7, MTT, mean of three independent experiments

pIC50 ([2]; Homo sapiens, MTT): 7.85
pIC50 ([14]; MDA-MB-231 stably transfected with human estrogen receptor-α): 5.30
pIC50 ([15]; Homo sapiens): 7.70 to 7.80
pIC50 [15]: 7.70
pIC50 ([17]; Homo sapiens, MCF7:TAM1, 240 h, MCF-7 TAM1, MTT 10 days, plus E2): 6.26
pIC50 ([18]; Homo sapiens, MCF7, MCF-7, MTT, mean of three independent experiments): 7.70 to 7.80
pIC50 [18, 20]: 7.80
SMILES: Cc1c(F)c(N)c2c(=O)cc(-c3ccc(N)c(F)c3)oc2c1F [aminoflavone]
γ-H2AX Focl [1]: yes
IC100 ([2]; MTT): 20 nM
sensitivity to aminoflavone ([2]; MTT 5 days (FIG. 2A)): pronounced susceptibility
sensitivity to aminoflavone [3]: essentially completely cross-resistant
pIC50 [4]: 5.52
IC100 [4]: 9 µM
pIC50 ([4]; Homo sapiens, MCF-10A): 4.60 to 5.52
γ-H2AX Focl [5]: no
sensitivity to aminoflavone [6]: resistant
IC100 ([7]; MTT): >100 µM
sensitivity to aminoflavone ([7]; MTT 5 days (FIG. 2A)): refractoriness
tumor growth inhibition [8]: inhibits tumor growth
tumor growth inhibition [9]: 85 % of control
γ-H2AX Focl [10]: no
total growth inhibition (TGI) [11]: ≥ 10000 nM
γ-H2AX Focl [12]: induces and yes
γ-H2AX Focl [13]: induces and yes
sensitivity compared to parental and vector transfected cells ([14]; ER+MDA-MB-231 vs parental and vector transfected cells): 5 times
IC100 [15]: ~300 nM and 375 nM
γ-H2AX Focl [16]: yes
IC100 ([17]; MCF-7 TAM1, MTT): 2 µM
sensitivity to aminoflavone ([18]; MCF-7, MTT 5 days (FIG. 2A)): pronounced susceptibility
IC100 [18, 20]: ~300 nM

SMILES: CC/C(=C(\c1ccccc1)c1ccc(OCCN(C)C)cc1)c1ccccc1 [tamoxifen]
cell growth inhibition compared to aminoflavone alone [19]: inhibited more greatly

SMILES: C[C@]12CC[C@@H]3c4ccc(O)cc4C[C@@H](CCCCCCCCC[S+]([O-])CCCC(F)(F)C(F)(F)F)[C@H]3[C@@H]1CC[C@@H]2O (stereo partly drawn) [Faslodex®, fulvestrant]
cell growth inhibition compared to aminoflavone alone [19]: inhibited more greatly

SMILES: CC/C(=C(\c1ccc(O)cc1)c1ccc(OCCN(C)C)cc1)c1ccccc1 [4-OH-tamoxifen, reference compound]
concentration causing growth inhibition ([17]; MCF-7TAM1, serum starved, 10 days, plus E2): > 10 µM

Source: US20100260753A1, “AMINOFLAVONE (NSC 686288) AND COMBINATIONS THEREOF FOR TREATING BREAST CANCER” (priority 2007, published 2010)
